Data on one compound can be found in article PMC10239507, “Development of allosteric and selective CDK2 inhibitors for contraception with negative cooperativity to cyclin binding” (Nature Communications, 2023).

Holding throughout (test): biochemical
For experiment [1], the target named is T1, 371 kinases (kinase named in each endpoint) (Homo sapiens, UniProt O60307).
T1 construct: purchased Reaction Biology
The settings on record: MAST3.

Experiment [2] has as its target T2, 371 kinases (kinase named in each endpoint) (Homo sapiens, UniProt O94804).
T2 construct: purchased Reaction Biology
To be noted: LOK/STK10.

Experiment [3] deals with T3, 371 kinases (kinase named in each endpoint) (Homo sapiens, UniProt P21709).
T3 construct: purchased Reaction Biology
To be noted: EPHA1.

For experiment [4], the target named is T4, 371 kinases (kinase named in each endpoint) (Homo sapiens, UniProt P22612).
T4 construct: purchased Reaction Biology
To be noted: PKACG.

The target of experiment [5] is T5, 371 kinases (kinase named in each endpoint) (Homo sapiens, UniProt P42684).
T5 construct: purchased Reaction Biology
The settings on record: ABL2/ARG.

Experiment [6] concerns the target T6, 371 kinases (kinase named in each endpoint) (Homo sapiens, UniProt P43403).
T6 construct: purchased Reaction Biology
To be noted: ZAP70.

Experiment [7] deals with T7, 371 kinases (kinase named in each endpoint) (Homo sapiens, UniProt P53350).
T7 construct: purchased Reaction Biology
The settings on record: PLK1.

In experiment [8] the target is T8, 371 kinases (kinase named in each endpoint) (Homo sapiens, UniProt Q8TD08).
T8 construct: purchased Reaction Biology
To be noted: ERK7/MAPK15.

T6 sequence (P43403 whole entry): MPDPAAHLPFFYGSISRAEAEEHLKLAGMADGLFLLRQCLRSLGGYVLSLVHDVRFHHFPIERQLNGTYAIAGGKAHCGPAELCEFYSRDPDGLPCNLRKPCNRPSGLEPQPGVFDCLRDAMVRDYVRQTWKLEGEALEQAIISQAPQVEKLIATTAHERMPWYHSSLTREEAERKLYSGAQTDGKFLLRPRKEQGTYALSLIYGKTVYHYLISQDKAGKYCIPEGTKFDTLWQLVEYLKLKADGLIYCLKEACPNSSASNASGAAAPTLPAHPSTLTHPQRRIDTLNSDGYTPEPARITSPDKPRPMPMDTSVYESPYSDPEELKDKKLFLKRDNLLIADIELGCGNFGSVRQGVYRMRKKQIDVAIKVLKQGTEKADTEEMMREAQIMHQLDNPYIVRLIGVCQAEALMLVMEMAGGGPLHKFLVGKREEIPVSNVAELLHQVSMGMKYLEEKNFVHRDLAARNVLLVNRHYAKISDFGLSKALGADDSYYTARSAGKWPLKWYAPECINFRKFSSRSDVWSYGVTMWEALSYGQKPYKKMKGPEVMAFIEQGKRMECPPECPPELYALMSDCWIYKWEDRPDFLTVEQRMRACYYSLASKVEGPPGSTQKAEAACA
T5 sequence (P42684 whole entry): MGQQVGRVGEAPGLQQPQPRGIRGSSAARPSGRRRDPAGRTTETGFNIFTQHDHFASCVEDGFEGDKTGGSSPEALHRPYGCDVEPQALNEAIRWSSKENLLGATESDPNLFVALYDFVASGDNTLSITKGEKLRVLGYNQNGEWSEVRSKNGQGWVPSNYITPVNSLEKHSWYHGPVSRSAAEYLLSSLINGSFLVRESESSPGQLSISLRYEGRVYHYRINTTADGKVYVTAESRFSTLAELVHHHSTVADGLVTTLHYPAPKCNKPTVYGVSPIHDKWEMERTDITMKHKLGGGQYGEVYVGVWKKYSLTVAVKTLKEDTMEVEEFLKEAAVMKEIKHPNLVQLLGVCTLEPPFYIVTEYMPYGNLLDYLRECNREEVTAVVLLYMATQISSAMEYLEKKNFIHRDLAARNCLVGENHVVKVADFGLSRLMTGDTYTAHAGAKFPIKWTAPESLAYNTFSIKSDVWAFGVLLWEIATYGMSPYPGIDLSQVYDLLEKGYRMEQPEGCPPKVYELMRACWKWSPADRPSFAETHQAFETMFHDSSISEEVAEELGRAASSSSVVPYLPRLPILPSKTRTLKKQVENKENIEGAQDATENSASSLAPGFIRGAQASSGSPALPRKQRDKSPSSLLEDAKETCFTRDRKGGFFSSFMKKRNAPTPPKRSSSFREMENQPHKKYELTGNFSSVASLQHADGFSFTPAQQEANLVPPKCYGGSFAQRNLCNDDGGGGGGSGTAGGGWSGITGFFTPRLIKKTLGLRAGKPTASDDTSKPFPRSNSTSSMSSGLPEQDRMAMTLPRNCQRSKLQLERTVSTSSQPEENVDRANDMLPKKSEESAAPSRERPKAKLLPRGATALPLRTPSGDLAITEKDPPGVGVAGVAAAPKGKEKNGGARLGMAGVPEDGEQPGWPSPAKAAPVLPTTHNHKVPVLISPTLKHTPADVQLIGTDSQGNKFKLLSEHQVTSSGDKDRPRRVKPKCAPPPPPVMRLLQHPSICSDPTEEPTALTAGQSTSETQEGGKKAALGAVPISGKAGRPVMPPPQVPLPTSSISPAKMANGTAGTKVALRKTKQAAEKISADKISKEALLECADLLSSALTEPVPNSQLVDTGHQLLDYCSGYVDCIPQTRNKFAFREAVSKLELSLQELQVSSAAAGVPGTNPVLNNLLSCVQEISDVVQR
T3 sequence (P21709 26-976): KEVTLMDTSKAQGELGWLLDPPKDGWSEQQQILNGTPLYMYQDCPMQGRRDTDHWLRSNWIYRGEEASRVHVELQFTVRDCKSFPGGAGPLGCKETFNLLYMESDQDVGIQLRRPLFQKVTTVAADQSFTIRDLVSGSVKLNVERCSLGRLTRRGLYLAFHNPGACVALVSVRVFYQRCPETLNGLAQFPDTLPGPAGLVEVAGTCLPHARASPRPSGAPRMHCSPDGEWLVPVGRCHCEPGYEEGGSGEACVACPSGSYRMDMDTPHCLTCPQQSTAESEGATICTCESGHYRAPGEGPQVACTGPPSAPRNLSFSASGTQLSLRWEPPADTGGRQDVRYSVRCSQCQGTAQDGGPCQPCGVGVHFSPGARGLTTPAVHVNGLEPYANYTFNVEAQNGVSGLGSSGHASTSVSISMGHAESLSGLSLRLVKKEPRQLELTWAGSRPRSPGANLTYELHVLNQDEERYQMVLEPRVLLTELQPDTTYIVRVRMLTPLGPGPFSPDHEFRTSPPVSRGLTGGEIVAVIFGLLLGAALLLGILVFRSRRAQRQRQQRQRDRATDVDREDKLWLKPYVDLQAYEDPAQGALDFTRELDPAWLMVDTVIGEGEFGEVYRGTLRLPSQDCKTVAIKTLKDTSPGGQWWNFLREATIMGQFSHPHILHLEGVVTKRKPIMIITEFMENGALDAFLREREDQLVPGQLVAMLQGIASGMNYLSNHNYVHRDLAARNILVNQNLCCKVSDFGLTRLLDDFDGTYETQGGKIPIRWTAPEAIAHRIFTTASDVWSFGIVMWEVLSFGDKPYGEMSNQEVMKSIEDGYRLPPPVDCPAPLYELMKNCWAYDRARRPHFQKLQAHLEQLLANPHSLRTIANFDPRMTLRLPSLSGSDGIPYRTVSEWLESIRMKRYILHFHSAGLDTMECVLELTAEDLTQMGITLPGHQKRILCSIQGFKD
T7 sequence (P53350 whole entry): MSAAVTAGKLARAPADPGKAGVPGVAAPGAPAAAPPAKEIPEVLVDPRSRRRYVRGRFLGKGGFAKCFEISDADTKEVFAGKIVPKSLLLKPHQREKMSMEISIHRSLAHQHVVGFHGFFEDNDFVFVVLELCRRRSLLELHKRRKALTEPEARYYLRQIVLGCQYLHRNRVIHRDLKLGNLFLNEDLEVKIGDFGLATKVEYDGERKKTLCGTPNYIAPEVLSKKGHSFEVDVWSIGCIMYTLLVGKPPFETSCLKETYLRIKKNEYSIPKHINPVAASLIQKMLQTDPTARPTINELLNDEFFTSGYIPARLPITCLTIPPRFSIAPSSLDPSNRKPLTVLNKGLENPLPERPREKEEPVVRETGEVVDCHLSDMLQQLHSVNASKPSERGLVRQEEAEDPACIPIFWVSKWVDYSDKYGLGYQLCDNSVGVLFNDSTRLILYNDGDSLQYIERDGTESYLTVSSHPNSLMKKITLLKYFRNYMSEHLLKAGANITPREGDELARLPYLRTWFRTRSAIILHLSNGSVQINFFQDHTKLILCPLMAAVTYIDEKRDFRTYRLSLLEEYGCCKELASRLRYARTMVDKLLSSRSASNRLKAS
T4 sequence (P22612 whole entry): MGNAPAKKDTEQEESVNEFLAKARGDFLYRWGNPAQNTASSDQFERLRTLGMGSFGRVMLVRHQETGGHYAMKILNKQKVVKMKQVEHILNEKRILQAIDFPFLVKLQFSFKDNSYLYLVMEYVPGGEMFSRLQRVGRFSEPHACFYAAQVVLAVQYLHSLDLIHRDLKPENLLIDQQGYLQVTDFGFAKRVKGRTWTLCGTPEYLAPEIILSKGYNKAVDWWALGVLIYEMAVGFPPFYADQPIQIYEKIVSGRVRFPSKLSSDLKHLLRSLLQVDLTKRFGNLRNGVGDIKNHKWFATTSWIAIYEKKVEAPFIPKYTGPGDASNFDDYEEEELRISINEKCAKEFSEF
T8 sequence (Q8TD08 whole entry): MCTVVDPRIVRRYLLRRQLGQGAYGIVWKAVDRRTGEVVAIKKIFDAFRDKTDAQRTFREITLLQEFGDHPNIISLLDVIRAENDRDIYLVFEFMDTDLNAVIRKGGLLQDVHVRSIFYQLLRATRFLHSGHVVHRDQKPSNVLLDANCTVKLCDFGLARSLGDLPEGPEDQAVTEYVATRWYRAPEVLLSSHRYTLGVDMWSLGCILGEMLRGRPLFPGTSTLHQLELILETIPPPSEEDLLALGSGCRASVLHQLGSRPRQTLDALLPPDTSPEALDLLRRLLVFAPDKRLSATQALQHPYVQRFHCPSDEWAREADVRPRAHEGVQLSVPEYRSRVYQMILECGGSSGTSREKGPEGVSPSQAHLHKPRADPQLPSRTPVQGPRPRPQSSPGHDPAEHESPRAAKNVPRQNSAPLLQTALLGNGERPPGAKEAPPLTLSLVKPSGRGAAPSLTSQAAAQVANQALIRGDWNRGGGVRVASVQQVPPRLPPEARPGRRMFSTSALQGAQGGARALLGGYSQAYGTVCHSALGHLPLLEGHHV

With `O=C(O)c1cc(C(F)(F)F)ccc1NCCc1c[nH]c2cc(Br)ccc12` [Compound 5, 2-((2-(6-Bromo-1H-indol-3-yl)ethyl)amino)−5-(trifluoromethyl)benzoic Acid], the activity at 10 µM is 94.9 ± 0.2% in experiment [1]; 88.1 ± 0.3% in experiment [2]; 102.2 ± 0.1% in experiment [3]; 76.2 ± 2.6% in experiment [4]; 94.7 ± 2.8% in experiment [5]; 95.1 ± 1.6% in experiment [6]. The activity at 10 µM in experiment [7] is 92.7 ± 1.5%; in experiment [8] it was 136 ± 6.1%.
